Test results as given in US20260098046A1, “RIFABUTIN ANALOGS FOR THE TREATMENT OF DISEASE” (BIOVERSYS AG, priority 2022, published 2026).
≈ marks a conversion by molar mass, not a printed value. Read-outs that look alike come from different tables or passages of the source.

Legend:
Type in all cases: cell-based
[1] = test system: S. aureus (UAMS-1625 strain); experiment: MIC by broth microdilution (CLSI) against S. aureus; settings: Staphylococcus aureus, 20 h, read-out: In vitro activity (MIC) S. aureus
Experimental: (§1) MIC values were determined by broth microdilution method according to the CLSI guideline. Unless otherwise mentioned, MIC against A. baumannii was performed in RPMI medium supplemented with 10% FCS. MIC against M. abscessus was performed in Middlebrook 7H9 broth supplemented with Middlebrook ADC growth supplement (10%). All other MIC were performed in standard cation adjusted Mueller Hinton broth, supplemented with Middlebrook ADC growth supplement (5%) for the slow growing mycobacteria (M. xenopi, M. kansasii and M. avium).
(§2) The following procedure applies to all species tested, except for M. xenopi. From a fresh culture plate (from overnight to several days depending on the bacteria), cells were resuspended in 0.9% (w/v) saline solution and bacterial inoculum was prepared in the respective testing medium with 5×10^5 CFU/mL. For M. xenopi, the inoculum was prepared from a fresh liquid culture (7H9+ADC). The appropriate volumes of a 10 mg/mL compound solution were directly dispensed in the 96-well assay plate using a digital dispenser to create two-fold dilution series from 32 to 0.002 μg/mL final concentration for A. baumannii and S. aureus; from 16 to 0.016 μg/mL for M. abscessus and M. avium; and from 1 to 6×10^−5 μg/mL for M. kansasii and M. xenopi. 100 μL of bacterial suspension was finally added to the compounds. Plates were covered and incubated without shaking at 35° C. for 20 hours for A. baumanii and S. aureus; at 30° C. for 4 days for M. abscessus; and at 37° C. for 7 days (at least) for M. kansasii (covered with aluminum foil to avoid light exposure), M. avium and M. xenopi. Every experiment contained an antibiotic as quality control. MIC was determined visually as the lowest concentration of a compound that prevents visible growth of the bacteria.
(§3) The in vitro activity of compounds described herein was determined against S. aureus (UAMS-1625 strain), A. baumannii (HUMC1 strain), M. abscessus (ATCC 19977), M. kansasii (ATCC12478), M. avium (ATCC25291), and M. xenopi (ATCC19250).

[2] = test system: M. abscessus (ATCC 19977); experiment: MIC by broth microdilution (CLSI) against M. abscessus; settings: Mycobacteroides abscessus
Experimental: as §1, §2, §3

[3] = test system: A. baumannii (HUMC1 strain); experiment: MIC by broth microdilution (CLSI) against A. baumannii; settings: Acinetobacter baumannii, RPMI medium supplemented with 10% FCS, 35° C. for 20 hours, read-out: In vitro activity (MIC) A. baumannii
Experimental: as §1, §2, §3

M. avium (ATCC25291) = experiment: MIC by broth microdilution (CLSI) against M. avium; settings: Mycobacterium avium, 168 h, cation adjusted Mueller Hinton broth + ADC (5%), 37° C. for 7 days (at least), read-out: In vitro activity (MIC) M. avium
Experimental: as §1, §2, §3

M. xenopi (ATCC19250) = experiment: MIC by broth microdilution (CLSI) against M. xenopi; settings: Mycobacterium xenopi, 168 h, cation adjusted Mueller Hinton broth + ADC (5%), 37° C. for 7 days (at least), read-out: In vitro activity (MIC) M. xenopi
Experimental: as §1, §2, §3

M. kansasii (ATCC12478) = experiment: MIC by broth microdilution (CLSI) against M. kansasii; settings: Mycobacterium kansasii, 168 h, cation adjusted Mueller Hinton broth + ADC (5%), 37° C. for 7 days (at least), read-out: In vitro activity (MIC) M. kansasii
Experimental: as §1, §2, §3

[4] = ATCC19977, 96 h, ATCC 19977, Middlebrook 7H9 broth + ADC (10%), 30° C. for 4 days, read-out: In vitro activity (MIC) M. abscessus

CO[C@H]1/C=C/O[C@@]2(C)Oc3c(C)c(O)c4c(c3C2=O)C2=NC3(CCN(CC(C)C)CC3)NC2=C(NC(=O)/C(C)=C\C=C\[C@H](C)[C@H](O)[C@@H](C)[C@@H](O)[C@@H](C)[C@H](OC(=O)Cn2cc(C3CC3)nn2)[C@@H]1C)C4=O [Compound 25]
MIC [1]: 0.03 µg/mL (≈ 0.0314 µM) | MIC [2, 4]: 4 µg/mL | MIC [3]: ≤ 0.002 µg/mL

CO[C@H]1/C=C/O[C@@]2(C)Oc3c(C)c(O)c4c(c3C2=O)C2=NC3(CCN(CC(C)C)CC3)NC2=C(NC(=O)/C(C)=C\C=C\[C@H](C)[C@H](O)[C@@H](C)[C@@H](O)[C@@H](C)[C@H](OC(=O)Cn2cc(CNS(=O)(=O)c3ccc(C)cc3)nn2)[C@@H]1C)C4=O [Compound 17]
MIC [1]: 0.25 µg/mL (≈ 0.228 µM) | MIC [2, 4]: 0.5 µg/mL | MIC [3]: 0.008 µg/mL (≈ 0.00729 µM)

COc1ccc2cc(-c3cn(CC(=O)O[C@H]4[C@H](C)[C@H](O)[C@H](C)[C@@H](O)[C@@H](C)/C=C/C=C(/C)C(=O)NC5=C6NC7(CCN(CC(C)C)CC7)N=C6c6c(c(O)c(C)c7c6C(=O)[C@@](C)(O/C=C/[C@H](OC)[C@H]4C)O7)C5=O)nn3)ccc2c1 [Compound 6]
MIC [1]: 8 µg/mL (≈ 7.47 µM) | MIC [2, 4]: 0.25 µg/mL | MIC (M. avium (ATCC25291)): 0.06 µg/mL | MIC [3]: 1 µg/mL (≈ 0.934 µM) | MIC (M. xenopi (ATCC19250)): 0.03 µg/mL | MIC (M. kansasii (ATCC12478)): 0.002 µg/mL

CO[C@H]1/C=C/O[C@@]2(C)Oc3c(C)c(O)c4c(c3C2=O)C2=NC3(CCN(CC(C)C)CC3)NC2=C(NC(=O)/C(C)=C\C=C\[C@H](C)[C@H](O)[C@@H](C)[C@@H](O)[C@@H](C)[C@H](OC(=O)Cn2cc(CN3CCS(=O)(=O)CC3)nn2)[C@@H]1C)C4=O [Compound 14]
MIC [1]: 0.06 µg/mL (≈ 0.0565 µM) | MIC [2, 4]: 1 µg/mL | MIC [3]: ≤ 0.002 µg/mL

CO[C@H]1/C=C/O[C@@]2(C)Oc3c(C)c(O)c4c(O)c(c(/C=N/N5CCN(C)CC5)c(O)c4c3C2=O)NC(=O)/C(C)=C\C=C\[C@H](C)[C@H](O)[C@@H](C)[C@@H](O)[C@@H](C)[C@H](OC(C)=O)[C@@H]1C [Rifampicin, reference compound]
MIC ([2]; ATCC19977, tested M. abscessus strains, read-out: MIC value on M. abscessus): > 32 µg/mL

CO[C@H]1/C=C/O[C@@]2(C)Oc3c(C)c(O)c4c(c3C2=O)C2=NC3(CCN(CC(C)C)CC3)NC2=C(NC(=O)/C(C)=C\C=C\[C@H](C)[C@H](O)[C@@H](C)[C@@H](O)[C@@H](C)[C@H](OC(=O)Cn2cc(CCCc3ccccc3)nn2)[C@@H]1C)C4=O [Compound 10]
MIC [1]: 8 µg/mL (≈ 7.75 µM) | MIC [2, 4]: 0.5 µg/mL | MIC [3]: 0.125 µg/mL (≈ 0.121 µM)

CO[C@H]1/C=C/O[C@@]2(C)Oc3c(C)c(O)c4c(c3C2=O)C2=NC3(CCN(CC(C)C)CC3)NC2=C(NC(=O)/C(C)=C\C=C\[C@H](C)[C@H](O)[C@@H](C)[C@@H](O)[C@@H](C)[C@H](OC(=O)Cn2cc(CNS(=O)(=O)c3ccc(Cl)cc3)nn2)[C@@H]1C)C4=O [Compound 18]
MIC [1]: 0.5 µg/mL (≈ 0.447 µM) | MIC [2, 4]: 0.5 µg/mL | MIC [3]: 0.06 µg/mL (≈ 0.0537 µM)

CO[C@H]1/C=C/O[C@@]2(C)Oc3c(C)c(O)c4c(c3C2=O)C2=NC3(CCN(CC(C)C)CC3)NC2=C(NC(=O)/C(C)=C\C=C\[C@H](C)[C@H](O)[C@@H](C)[C@@H](O)[C@@H](C)[C@H](OC(=O)Cn2cc(CNS(C)(=O)=O)nn2)[C@@H]1C)C4=O [Compound 15]
MIC [1]: 0.125 µg/mL (≈ 0.122 µM) | MIC [2, 4]: 1 µg/mL | MIC [3]: ≤ 0.002 µg/mL

CO[C@H]1/C=C/O[C@@]2(C)Oc3c(C)c(O)c4c(c3C2=O)C2=NC3(CCN(CC(C)C)CC3)NC2=C(NC(=O)/C(C)=C\C=C\[C@H](C)[C@H](O)[C@@H](C)[C@@H](O)[C@@H](C)[C@H](OC(=O)Cn2cc(-c3ccc(-c5ccccc5)cc3)nn2)[C@@H]1C)C4=O [Compound 7]
MIC [1]: 8 µg/mL (≈ 7.5 µM) | MIC [2, 4]: 1 µg/mL | MIC [3]: 1 µg/mL (≈ 0.938 µM)

CO[C@H]1/C=C/O[C@@]2(C)Oc3c(C)c(O)c4c(c3C2=O)C2=NC3(CCN(CC(C)C)CC3)NC2=C(NC(=O)/C(C)=C\C=C\[C@H](C)[C@H](O)[C@@H](C)[C@@H](O)[C@@H](C)[C@H](OC(=O)Cn2cc(CCc3ccccc3)nn2)[C@@H]1C)C4=O [Compound 9]
MIC [1]: 0.5 µg/mL (≈ 0.491 µM) | MIC [2, 4]: 0.25 µg/mL | MIC (M. avium (ATCC25291)): 0.06 µg/mL | MIC [3]: 0.03 µg/mL (≈ 0.0295 µM) | MIC (M. xenopi (ATCC19250)): 0.03 µg/mL | MIC (M. kansasii (ATCC12478)): 0.002 µg/mL
